# Data reported in USRE38520E1, “Erythromycin derivatives, method for preparing same, and use thereof as drugs” (Aventis Pharma S.A., priority 1996, dated 2004).
# Experiments:
# Assay in all cases: Method of dilutions in liquid medium (M.I.C.)
# Format in all cases: cell-based
# Conditions in all cases: incubation twenty-four hours at 37° C.
# [1] = system: Streptoccocus aritis 02mmCH1
# Protocol: (§1) Method of Dilutions in Liquid Medium A series of tubes were prepared into which the same quantity of sterile nutritive medium is distributed. Increasing quantities of the product to be studied are distributed into each tube, then each tube is seeded with a bacterial strain. After incubation for twenty-four hours in a heating chamber at 37° C., the growth inhibition is evaluated by transillumination, which permits the minimal inhibitory concentrations (M.I.C.) to be determined, expressed in micrograms/cm^3.
# [2] = system: Streptoccocus agalactae group B 02B1811
# Protocol: as §1
# [3] = system: Streptoccocus faecalis group C 02D2UCI
# Protocol: as §1
# [4] = system: Streptoccocus sp. group G 02GRGR5
# Protocol: as §1
# [5] = system: Streptoccocus agalactae group B 02B1UTI
# Protocol: as §1
# [6] = system: Streptoccocus pyogenes group A 02A1UCI
# Protocol: as §1
# [7] = system: Streptoccocus pneumoniae 031515
# Protocol: as §1
# [8] = system: Streptoccocus faecium group D 02D2UCI
# Protocol: as §1
# [9] = system: Streptoccocus aritis 02mmGR01
# Protocol: as §1
# [10] = system: Staphylococtus aureus 011UC4
# Protocol: as §1
molecule,measurement,setting,value
"CC[C@H]1OC(=O)[C@H](C)[C@@H](O)[C@H](C)[C@@H](O[C@@H]2O[C@H](C)C[C@H](N(C)C)[C@H]2O)[C@](C)(OC)C[C@@H](C)C(=O)[C@H](C)[C@H]2N(CCCCn3cnc(-c4cccnc4)c3)C(=O)O[C@]12C [Ex. 2, 11,12-dideoxy-3-d((2,6-dideoxy-3-C-methyl-3-O-methyl-alpha-L-ribohexopyranosyl)oxy)-3-hydroxy-6-O-methyl-12,11-(oxycarbonyl((4-(4-(3-pyridinyl)-1H-imidazol-1-yl)-butyl)imino))-erythromycin]",minimal inhibitory concentrations (M.I.C.),[1],0.34 micrograms/cm^3
same,minimal inhibitory concentrations (M.I.C.),[2],1.2 micrograms/cm^3
same,minimal inhibitory concentrations (M.I.C.),[3],0.3 micrograms/cm^3
same,minimal inhibitory concentrations (M.I.C.),[4],0.15 micrograms/cm^3
same,minimal inhibitory concentrations (M.I.C.),[5],0.04 micrograms/cm^3
same,minimal inhibitory concentrations (M.I.C.),[6],0.15 micrograms/cm^3
same,minimal inhibitory concentrations (M.I.C.),[7],1 micrograms/cm^3
same,minimal inhibitory concentrations (M.I.C.),[8],0.3 micrograms/cm^3
same,minimal inhibitory concentrations (M.I.C.),[9],0.6 micrograms/cm^3
"11,12-dideoxy-3-de((2,6-dideoxy-3-C-methyl-3-O-methyl-alpha-L-ribohexopyranosyl)oxy)-3-hydroxy-6-O-methyl-12,11-(oxycarbonyl(2-(3-(4-quinolinyl)propyl)hydrazono)) erythromycin [Ex. 1]",minimal inhibitory concentrations (M.I.C.),[1],0.3 micrograms/cm^3
same,minimal inhibitory concentrations (M.I.C.),[10],0.3 micrograms/cm^3
same,minimal inhibitory concentrations (M.I.C.),[2],0.6 micrograms/cm^3
same,minimal inhibitory concentrations (M.I.C.),[3],0.04 micrograms/cm^3
same,minimal inhibitory concentrations (M.I.C.),[4],0.04 micrograms/cm^3
same,minimal inhibitory concentrations (M.I.C.),[5],≦0.02 micrograms/cm^3
same,minimal inhibitory concentrations (M.I.C.),[6],0.04 micrograms/cm^3
same,minimal inhibitory concentrations (M.I.C.),[7],0.6 micrograms/cm^3
same,minimal inhibitory concentrations (M.I.C.),[8],0.04 micrograms/cm^3
same,minimal inhibitory concentrations (M.I.C.),[9],0.15 micrograms/cm^3
